What was measured:
[1] = tested on: TrkA/CD44v3 complex in MDA-MB-231 cells; test: PLA TrkA/CD44v3 complex formation in MDA-MB-231 cells; type: cell-based; conditions: NGF 100 ng/ml; 30 fields per condition, three experiments
Protocol: Cells (10,000 cells per well) were grown on acid-washed eight-well glass slides (Thermo Scientific) in the appropriate medium supplemented with 10% FBS for 24 h. After NGF treatment, paraformaldehyde (PAF)-fixed cells were incubated with 4% bovine serum albumin (BSA) or 5% FBS (for 1 h at 20 °C), followed by overnight incubation with primary antibodies (rabbit anti-TrkA or rabbit anti-IgG + mouse anti-pan-CD44; mouse anti-CD44v3; mouse anti-CD44v6; mouse anti-IgG2a; mouse anti-IgG2b; or mouse anti-IgG1). PLA was performed following the manufacturer’s instructions in the assay kit (Duolink PLA; Sigma–Aldrich). To obtain the correct representation of the PLA signal for each condition, 30 fields per condition were observed using a fluorescence microscope (Eclipse TiU; Nikon, Japan). The PLA signals (red dots) were automatically quantified using ImageJ software (with an in-house-developed plug-in). After PLA, statistical analyses were performed using GraphPad Prism software to determine the mean dot intensity in the cells.
Fig. 3 CD44v3 mimetic peptide 4 blocks the TrkA-CD44 association in MDA-MB-231 breast cancer cells. TrkA/CD44v3 (A) and TrkA/CD44v6 (B) complex associations were detected by the proximity ligation assay (PLA) in MDA-MB-231 breast cancer cells. Effects of a scramble peptide (SP) (C), CD44v3 mimetic peptide 3 (P3) and 4 (P4) (D) on TrkA/CD44v3 complex formation induced by NGF. Quantification of the PLA results was performed by ImageJ software (30 randomly chosen fields per condition of three different experiments). Statistical analyses were performed using one-way ANOVA followed by Bonferroni’s posttest. The error bars represent the standard error of the mean (S.E.M.); * p < 0.05, ** p < 0.01, *** p < 0.001; ns, not significant

MDA-MB-231 cells = test: Transwell invasion assay through collagen I, MDA-MB-231; type: cell-based; conditions: peptide 50 ng/mL for 30 min, NGF in lower chamber, 24 h (legend: 16 h)
Protocol: Transwell invasion assays were performed to assess cancer cell invasion in a Transwell chamber containing a collagen I-coated membrane (12-wells with inserts and […] pore size membranes; Corning, Life Sciences). A total of 1 × 10^6 starved cells (0.1% in SVF medium) were plated in the top chamber and incubated for 10 min before treatment with a peptide (50 ng/mL for 30 min); NGF was added to the lower chamber. After 24 h, the cells were fixed with methanol for 10 min and stained with Hoechst 33258 (1 mg/mL) for 30 min, and the cells that invaded the lower surface through the pores of the inserts were automatically counted under an inverted microscope with ImageJ software (with an in-house-developed plug-in).
Fig. 4 CD44v3 mimetic peptide 4 inhibits MDA-MB-231 breast cancer cell growth and migration/invasion. Clonogenic MDA-MB-231 cell growth was measured after 10 days in the presence of a scramble peptide (SP) or CD44v3 mimetic peptide (P4) (A, B). The elongation factor (length-to-width ratio) was assessed after 10 days in the presence or absence of NGF (C, D, E). Migration assays were performed using Ibidi devices 24 h after treatment (H, I). Invasion through collagen 1 was measured by the Transwell assay 16 h after treatment (J, K). Statistical analyses were performed using one-way ANOVA followed by Bonferroni’s posttest. […]

[2] = Body weight in xenografted SCID mice; type: in vivo; conditions: 10 mice per group; injections near the tumor
Protocol: MDA-MB-231 cells (2 × 10^6) were subcutaneously injected into the flanks of six-week-old female SCID mice. One month after injection, the mice were randomized into 2 groups and injected near the tumor with CD44v3 mimetic peptide 4 (P4) or not (control) five times in a 3-day interval. Tumor volume was determined throughout the experiment by measuring the length (l) and width (w) and was calculated as π/6 × l × w × […]. Animals were sacrificed using isoflurane anesthesia when the tumors reached a similar size, and the organs were immediately removed and stored in liquid nitrogen.
Fig. 6 CD44v3 mimetic peptide 4 blocks MDA-MB-231 tumor growth and metastasis. Schematic representation of the experimental setup for MDA-MB-231 tumor growth assessment in SCID mice (A). Body weight (B) and tumor volume (C) were measured following CD44v3 mimetic peptide administration (10 mice per group). Schematic representation of the experimental setup for MDA-MB-231 metastasis assessment in SCID mice (D). Percentage of metastasis-positive lungs, brains and livers (E) after scramble peptide or CD44v3 mimetic peptide 4 treatment (3 mice/group) or (F) after TrkA-H112 mutant treatment (6 mice) compared with HA-TrkA cells (5 mice). ** p < 0.01; ns, nonsignificant. […]

Row | Substance | effect on TrkA/CD44v3 complex formation (PLA) in MDA-MB-231 cells [1] | effect on invasion of MDA-MB-231 cells (MDA-MB-231 cells) | body weight (in words) [2]
1 | NGF: recombinant human β-NGF (Alomone Labs, Israel) | induced TrkA/CD44v3 complex formation in MDA-MB-231 cells at the plasma membrane within 5 min to 30 min of administration | more NGF-treated cells than untreated cells invaded the collagen substrate | –
2 | IDDDEDFISST [Peptide 4, mimetic peptide 4 (…) corresponding to the C-terminal region of CD44v3] | could disrupt TrkA/CD44v3 complex formation in MDA-MB-231 cells | a decrease in both basal levels and NGF-induced invasion was observed | did not affect the overall body weight of the mice

Source: article PMC8962522, “Direct interaction of TrkA/CD44v3 is essential for NGF-promoted aggressiveness of breast cancer cells” (Journal of Experimental & Clinical Cancer Research : CR, 2022)
